For four compounds, Ki and pKb results are on record in ChEMBL document CHEMBL1123767, “High-affinity leukotriene receptor antagonists. Synthesis and pharmacological characterization of 2-hydroxy-3-[(2-carboxyethyl)thio]-3-[2-(8-phenyloctyl)phenyl] propanoic acid” (J Med Chem, 1987).

For experiment [1], the target named is T1, Cysteinyl leukotriene receptor 1 (Cavia porcellus, UniProt Q2NNR5).
T1 sequence (Q2NNR5 whole entry): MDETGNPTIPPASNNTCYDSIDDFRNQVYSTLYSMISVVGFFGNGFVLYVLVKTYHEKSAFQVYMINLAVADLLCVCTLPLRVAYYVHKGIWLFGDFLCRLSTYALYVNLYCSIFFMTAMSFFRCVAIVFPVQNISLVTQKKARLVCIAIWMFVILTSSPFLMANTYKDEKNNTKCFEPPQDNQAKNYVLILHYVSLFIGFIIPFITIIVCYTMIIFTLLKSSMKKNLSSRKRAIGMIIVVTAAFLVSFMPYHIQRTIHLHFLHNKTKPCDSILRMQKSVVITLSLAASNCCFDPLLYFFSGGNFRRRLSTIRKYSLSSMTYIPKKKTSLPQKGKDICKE
As to the kind of experiment: Binding affinity against Cysteinyl leukotriene D4 receptor in guinea pig lung membranes using [3H]LTD4 as the radioligand. The format is cell membranes, Membrane.

For experiment [2], the species on record is Cavia porcellus. In words: In vitro ability to antagonize LTD4-induced contractions of guinea pig smooth muscle (trachea) at 10 uM concentration. The format is functional.
For experiment [3], the target named is T2, Cysteinyl leukotriene receptor 1 (Cavia porcellus) (UniProt Q2NNR5).
T2 sequence (whole entry): T1 sequence (Q2NNR5 whole entry)
In words: (§1) In vitro ability to antagonize LTC4-induced contractions of guinea pig smooth muscle (trachea) at 10 uM concentration. The format is functional, tissue-based.

For experiment [4], the species on record is Homo sapiens. As to the kind of experiment: Ability to antagonize LTD4-induced contractions of human airway smooth muscle (bronchus) at 10 uM concentration. The format is functional.
For experiment [5], the species on record is Cavia porcellus. The description is as §1. The format is functional.
Experiment [6] is filed under the species Homo sapiens. As to the kind of experiment: In vitro ability to antagonize LTC4-induced contractions of human smooth muscle (bronchus) at 10 uM concentration. The format is functional.
The target of experiment [7] is T3, Cysteinyl leukotriene receptor 1 (Homo sapiens, UniProt Q9Y271).
T3 sequence (Q9Y271 whole entry): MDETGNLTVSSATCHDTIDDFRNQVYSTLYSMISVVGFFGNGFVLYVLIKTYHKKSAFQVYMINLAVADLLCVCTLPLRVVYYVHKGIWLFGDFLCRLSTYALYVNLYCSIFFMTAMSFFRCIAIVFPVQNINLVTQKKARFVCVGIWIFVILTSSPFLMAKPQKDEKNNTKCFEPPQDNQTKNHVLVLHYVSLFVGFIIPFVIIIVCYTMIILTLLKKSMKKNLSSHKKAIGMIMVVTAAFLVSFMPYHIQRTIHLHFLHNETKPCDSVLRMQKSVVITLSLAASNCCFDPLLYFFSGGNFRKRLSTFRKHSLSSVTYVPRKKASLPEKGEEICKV
In words: Binding affinity against Cysteinyl leukotriene D4 receptor in human lung membranes using [3H]LTD4 as the radioligand. The format is cell membranes, Membrane.

For experiment [8], the species on record is Cavia porcellus. As to the kind of experiment: In vitro ability to antagonize LTD4-induced contractions of guinea pig smooth muscle (trachea) at 3 uM concentration. The format is functional.
Experiment [9] concerns the target T2, Cysteinyl leukotriene receptor 1 (Cavia porcellus). The following applies: Trachea, 3 uM.
Description: In vitro ability to antagonize LTC4-induced contractions of guinea pig smooth muscle (trachea) at 3 uM concentration.
For experiment [10], the species on record is Homo sapiens. As to the kind of experiment: In vitro ability to antagonize LTC4-induced contractions of human smooth muscle (bronchus) at 3 uM concentration. The format is functional.
The species named for experiment [11] is Homo sapiens. In words: In vitro ability to antagonize LTD4-induced contractions of human airway smooth muscle (bronchus) at 3 uM concentration. The format is functional.

A value given as a limit tells only on which side of the number the result lay.

On to `O=C(O)CCS[C@@H](c1ccccc1CCCCCCCCc1ccccc1)[C@H](O)C(=O)O`, for which the Ki (commonly the equilibrium dissociation constant of an inhibitor or competing ligand from its target) in experiment [1] was determined as 180 nM. Also, the pKb (commonly the Kb on a negative log10 scale, so that one unit is a factor of ten) in the experiment listed under Cavia porcellus [2] is given as 6.1.
With `O=C(O)CCSC(CC(=O)O)c1ccccc1CCCCCCCCc1ccccc1` (stereo not given), the pKb was found to be 5.1 in [3] and 7 in the experiment filed under Cavia porcellus [2]. Further, the Ki in [1] is 60 nM.
For `CCCc1c(OCC(O)COc2ccc3c(=O)cc(C(=O)O)oc3c2CCC)ccc(C(C)=O)c1O` (stereo not given) [FPL-55712], the pKb in the experiment filed under Cavia porcellus [2] was 6.7; in the experiment listed under Homo sapiens [4] it was 5.8; in the experiment listed under Cavia porcellus [5] it was 4.9; in the experiment filed under Homo sapiens [6], 6.4.
Turning to `O=C(O)CCS[C@H](c1ccccc1CCCCCCCCc1ccccc1)[C@@H](O)C(=O)O` [POBILUKAST], the Ki in experiment [7] stood at 10 nM; in experiment [1] it was 5 nM. The pKb in the experiment filed under Cavia porcellus [8] is 8.6; in [9], under 5.4; in the experiment listed under Homo sapiens [10], 8.3; in the experiment listed under Homo sapiens [11], 8.2.
